In patent US4397676A, “N-Phosphonomethylglycine derivatives” (Geshuri Laboratories Ltd., priority 1982, dated 1983):
Where a name gives a salt, the structure may show the parent alone.

Assays:
various plant species = details: background statement; cited from earlier work
[1] = background statement; cited from earlier work
[2] = Solubility of NPMG-iminourea salts in water; type: physicochemical
Experimental: SOLUBILITY OF NPMG-IMINOUREA SALTS
NPMG Salt 20° C. (in grams)

O=C(O)CNCP(=O)(O)O [NPMG, N-phosphonomethylglycine]
herbicidal effect (in words) (various plant species): very effective phytotoxicant or herbicide
solubility in water and conventional organic solvents (in words) [1]: relatively insoluble in water and conventional organic solvents

O=C(O)CNCP(=O)(O)O [II, NPMG MONO (AMINOGUANIDINE) SALT]
water solubility (in words) ([2]; in words): highly water-soluble
content of active materials in solutions readily prepared ([2]; water as preferred diluent): ≤ 60 % by weight

O=C(O)CNCP(=O)(O)O [V, NPMG MONO (TETRA METHYL GUANIDINE) SALT]
Weight dissolved in 100 ml water at 20° C. ([2]; listed as 1,1,3,3 Tetra Methyl Guanidine): 165 grams

O=C(O)CNCP(=O)(O)O [I, NPMG MONO (GUANIDINE) SALT]
Weight dissolved in 100 ml water at 20° C. [2]: 15.7 grams
